Experimental data published in US10174000B2, “Bicyclic-fused heteroaryl or aryl compounds as IRAK4 modulators” (PFIZER INC., priority 2015, dated 2019).

What was measured:
[1] = molecular target: human IRAK4 FL (Full Length), phosphorylated (Homo sapiens (Human), UniProt Q9NWZ3); experiment: IRAK4 Enzymatic DELFIA Assay, Protocol A; assay type: biochemical; settings: 600 μM ATP (KM); full-length phosphorylated recombinant human IRAK4
Experimental: IRAK4 Enzymatic DELFIA Assay, Protocol A.
This is an in vitro assay to measure IRAK4 enzymatic activity utilizing the DELFIA (Dissociation-Enhanced Lanthanide Fluorescent Immunoassay, Perkin-Elmer) platform, with the human IRAK4 FL (Full Length) construct to characterize IRAK4 inhibitor and control compounds at 600 μM ATP (KM). The final amount of enzyme in the assay is 0.1 nM IRAK4 FL, final concentration of substrate is 50 nM, and final concentration of DMSO is 2.5%.
The test compound was solubilized in DMSO to a stock concentration of 30 mM. The dose response plates were prepared with a 4 mM primary compound concentration (40-fold multiple of the final in-assay concentration), and diluted in DMSO in a four-fold series for a total of 11 data points. 1 μL of the compound dilution plate is spotted into ultra-clear polypropylene, 384-well, U-bottom plates (Corning Life Sciences).
To begin the assay, 19 μL of reaction mixture containing 20 mM HEPES pH=7.5, 5 mM MgCl2, 0.0025% Brij-35, 600 μM ATP, 0.21 nM Full-length phosphorylated recombinant human IRAK4 (GenBank ID AF445802) are aliquoted into the polypropylene, 384-well, U-bottom plates containing 1 μL of test compound, mixed briefly and incubated for 20 minutes at room temperature (RT). Then, 20 μL of 20 mM HEPES pH=7.5, 5 mM MgCl2, 0.0025% Brij-35, 600 μM ATP, and 100 nM ERM-biotinylated peptide (AGAGRDKYKTLRQIR) is added to start the reaction. The reaction is incubated for 60 minutes at RT and stopped by the addition of 20 μL 0.3M EDTA.
(§1) 50 μL of the reaction mixture was transferred to a streptavidin-coated detection plate (DELFIA streptavidin coated plates, 384-well, white plates, Perkin-Elmer Life Sciences) and incubated for 30 minutes at RT. The plates were washed 4× with 75 μL per well of PBS containing 0.05% Tween-20. Plates were then incubated with 50 μL per well of antibody cocktail of Anti-pERM antibody at 0.125 μg/mL (Cell Signaling Technology), plus Anti-Rabbit IgG EuN1 at 0.25 μg/ml (Perkin-Elmer Life Sciences) in a solution of 10 mM MOPS pH=7.5, 150 mM NaCl, 0.05% Tween-20, 0.02% NaN3, 1% BSA, 0.1% Gelatin for 45 minutes. The plates were then washed as before. 50 μL per well of DELFIA Enhancement Solution (Perkin-Elmer Life Sciences) was added to the plate and incubated for 15 minutes at RT prior to being read on an Envision Model 2104 multi-label reader using a 340 nm excitation wavelength and a […] emission wavelength for detection.

[2] = molecular target: inactive, unphosphorylated (0-phos), human IRAK4 FL (Full Length) (Homo sapiens (Human), UniProt Q9NWZ3); experiment: IRAK4 Enzymatic DELFIA Assay, Protocol B; assay type: biochemical; settings: 600 μM ATP (KM), full-length recombinant human IRAK4
Sequence of inactive, unphosphorylated (0-phos), human IRAK4 FL (Full Length) (Q9NWZ3 whole entry): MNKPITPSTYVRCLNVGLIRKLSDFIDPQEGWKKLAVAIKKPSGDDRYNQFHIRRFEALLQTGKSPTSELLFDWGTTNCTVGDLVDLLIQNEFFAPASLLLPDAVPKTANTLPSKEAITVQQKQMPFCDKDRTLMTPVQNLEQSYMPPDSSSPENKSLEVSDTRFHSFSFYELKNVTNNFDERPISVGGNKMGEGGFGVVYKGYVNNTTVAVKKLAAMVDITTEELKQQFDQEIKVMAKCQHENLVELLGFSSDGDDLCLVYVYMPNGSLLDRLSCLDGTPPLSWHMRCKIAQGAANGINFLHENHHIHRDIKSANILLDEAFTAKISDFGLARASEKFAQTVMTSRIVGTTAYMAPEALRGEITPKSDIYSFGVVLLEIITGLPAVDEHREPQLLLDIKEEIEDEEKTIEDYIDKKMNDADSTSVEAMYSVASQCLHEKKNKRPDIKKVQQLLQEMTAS
Experimental: IRAK4 Enzymatic DELFIA Assay, Protocol B.
The test compound is solubilized in DMSO to a stock concentration of 30 mM. The dose response plates were prepared with a 4 mM primary compound concentration, serialized in DMSO and spotted (1 μL) into 384-well polypropylene plates as before.
20 uL of 20 mM HEPES pH=7.5, 5 mM MgCl2, 0.0025% Brij-35, 600 μM ATP, and 100 nM ERM-biotinylated peptide (AGAGRDKYKTLRQIR) was added to start the reaction, which was run for 90 minutes at RT and stopped by the addition of 20 μL 0.3M EDTA.
as §1

Sequence of human IRAK4 FL (Full Length), phosphorylated (Q9NWZ3 whole entry): as above

SMILES	IC50 [1]	IC50 [2]
CC[C@@H]1CC(=O)N[C@@H]1COc1ncc(NS(=O)(=O)c2c[nH]cn2)c2cc(C(N)=O)c(OC(C)C)cc12 [Example 12, 1-{[(2S,3R)-3-Ethyl-5-oxopyrrolidin-2-yl]methoxy}-4-[(1H-imidazol-4-ylsulfonyl)amino]-7-(propan-2-yloxy)isoquinoline-6-carboxamide]	> 100000 nM	6500 nM
CC[C@@H]1CC(=O)N[C@@H]1COc1ncc(NS(=O)(=O)c2cccnc2)c2cc(C(N)=O)c(OC(C)C)cc12 [Example 11, 1-{[(2S,3R)-3-Ethyl-5-oxopyrrolidin-2-yl]methoxy}-7-(propan-2-yloxy)-4-[(pyridin-3-ylsulfonyl)amino]isoquinoline-6-carboxamide]	> 100000 nM	1300 nM
COc1cc2c(OC[C@@]34C[C@@H]3CC(=O)N4)nccc2cc1C(N)=O [Example 31, 7-methoxy-1-{[(1R,5R)-3-oxo-2-azabicyclo[3.1.0]hex-1-yl]methoxy}isoquinoline-6-carboxamide]	> 100000 nM	1200 nM
COc1cc2c(OC[C@@H]3NC(=O)[C@@H](F)C34CC4)nccc2cc1C(N)=O [Example 22, 1-(((4R,7S)-7-fluoro-6-oxo-5-azaspiro[2.4]heptan-4-yl)methoxy)-7-methoxyisoquinoline-6-carboxamide]	26000 nM	1700 nM
Cc1c[nH]c(-c2cnc(OC[C@@H]3CCC(=O)N3)c3cc(OC(C)C)c(C(N)=O)cc23)n1 [Example 3, 4-(4-Methyl-1H-imidazol-2-yl)-1-{[(2S)-5-oxopyrrolidin-2-yl]methoxy}-7-(propan-2-yloxy)isoquinoline-6-carboxamide]	2900 nM	230 nM
CC(C)Oc1cc2c(OC[C@@H]3NC(=O)[C@H](F)C34CC4)nccc2cc1C(N)=O [Example 18, 1-(((4R,7R)-7-fluoro-6-oxo-5-azaspiro[2.4]heptan-4-yl)methoxy)-7-isopropoxyisoquinoline-6-carboxamide]	16000 nM	870 nM
CC[C@@H]1CC(=O)N[C@@H]1COc1ncc(NS(=O)(=O)c2ccccc2)c2cc(C(N)=O)c(OC(C)C)cc12 [Example 10, 1-{[(2S,3R)-3-ethyl-5-oxopyrrolidin-2-yl]methoxy}-4-[(phenylsulfonyl)amino]-7-(propan-2-yloxy)isoquinoline-6-carboxamide]	> 100000 nM	5700 nM
CNC(=O)c1cc2ccnc(OC[C@H]3NC(=O)[C@@H](F)[C@H]3C)c2cc1OC [Example 33, 1-(((2S,3S,4S)-4-fluoro-3-methyl-5-oxopyrrolidin-2-yl)methoxy)-7-methoxy-N-methylisoquinoline-6-carboxamide]	–	2000 nM
COc1cc2c(OCC34CC3CC(=O)N4)nccc2cc1C(N)=O (racemic) [Example 29, 7-methoxy-1-[(3-oxo-2-azabicyclo[3.1.0]hex-1-yl)methoxy]isoquinoline-6-carboxamide]	4200 nM	350 nM
CC[C@@H]1CC(=O)N[C@@H]1COc1ncc(NS(=O)(=O)c2cn(C)cn2)c2cc(C(N)=O)c(OC(C)C)cc12 [Example 13, 1-{[(2S,3R)-3-Ethyl-5-oxopyrrolidin-2-yl]methoxy}-4-{[(1-methyl-1H-imidazol-4-yl)sulfonyl]amino}-7-(propan-2-yloxy)isoquinoline-6-carboxamide]	> 100000 nM	12000 nM
CC[C@@H]1CC(=O)N[C@@H]1COc1ncc(NS(=O)(=O)c2cn(C)c(C)n2)c2cc(C(N)=O)c(OC(C)C)cc12 [Example 14, 4-{[(1,2-Dimethyl-1H-imidazol-4-yl)sulfonyl]amino}-1-{[(2S,3R)-3-ethyl-5-oxopyrrolidin-2-yl]methoxy}-7-(propan-2-yloxy)isoquinoline-6-carboxamide]	29000 nM	15000 nM

Continued by falling IC50 [1], values first:

IC50 [1]	IC50 [2]	SMILES
2100 nM	190 nM	CC(C)Oc1cc2c(OC[C@@H]3CCC(=O)N3)ncc(-c3nc(CO)c[nH]3)c2cc1C(N)=O [Example 8, 4-[4-(Hydroxymethyl)-1H-imidazol-2-yl]-1-{[(2S)-5-oxopyrrolidin-2-yl]methoxy}-7-(propan-2-yloxy)isoquinoline-6-carboxamide]
1900 nM	–	NC(=O)c1cc2ccnc3c2cc1OCCOC[C@H]1C[C@@H](CO3)NC1=O [Example 28, (3S,6R)-5-oxo-2,3,4,5,6,7,9,10-octahydro-12,14-(ethanediylidene)-3,6-methanopyrido[2,3-l][1,4,11,8]trioxazacyclopentadecine-19-carboxamide]
1450 nM	110 nM	COc1cc2c(OC[C@@H]3NC(=O)[C@H](F)C34CC4)nccc2cc1C(N)=O [Example 23, 1-(((4R,7R)-7-fluoro-6-oxo-5-azaspiro[2.4]heptan-4-yl)methoxy)-7-methoxyisoquinoline-6-carboxamide]
188 nM	4 nM	CC(C)Oc1cc2c(OC[C@@H]3CCC(=O)N3)ncc(-c3ncco3)c2cc1C(N)=O [Example 2, 4-(1,3-Oxazol-2-yl)-1-{[(2S)-5-oxopyrrolidin-2-yl]methoxy}-7-(propan-2-yloxy)isoquinoline-6-carboxamide]
112 nM	10 nM	CC(C)Oc1cc2c(OC[C@@H]3CCC(=O)N3)ncc(-c3ccn(C)n3)c2cc1C(N)=O [Example 4, 4-(1-Methyl-1H-pyrazol-3-yl)-1-{[(2S)-5-oxopyrrolidin-2-yl]methoxy}-7-(propan-2-yloxy)isoquinoline-6-carboxamide]
57 nM	3.2 nM	Cc1nc(-c2cnc(OC[C@@H]3CCC(=O)N3)c3cc(OC(C)C)c(C(N)=O)cc23)oc1C [Example 7, 4-(4,5-Dimethyl-1,3-oxazol-2-yl)-1-{[(2S)-5-oxopyrrolidin-2-yl]methoxy}-7-(propan-2-yloxy)isoquinoline-6-carboxamide]
27 nM	4.5 nM	CC[C@@H]1[C@H](F)C(=O)N[C@@H]1COc1nccc2nc(C(N)=O)c(OC)cc12 [Example 32, 5-{[(2S,3S,4S)-3-ethyl-4-fluoro-5-oxopyrrolidin-2-yl]methoxy}-3-methoxy-1,6-naphthyridine-2-carboxamide]
20.7 nM	1.2 nM	CC(C)Oc1cc2c(OC[C@H]3NC(=O)[C@H](F)C34CC4)nccc2cc1C(N)=O [Example 17, 1-(((4S,7R)-7-fluoro-6-oxo-5-azaspiro[2.4]heptan-4-yl)methoxy)-7-isopropoxyisoquinoline-6-carboxamide]
7.5 nM	2 nM	CC[C@@H]1[C@H](F)C(=O)N[C@@H]1COc1cccc2cc(C(N)=O)c(OC)nc12 [Example 1, 8-{[(2S,3S,4S)-3-Ethyl-4-fluoro-5-oxopyrrolidin-2-yl]methoxy}-2-methoxyquinoline-3-carboxamide]
5.4 nM	0.6 nM	CC(C)Oc1cc2c(OC[C@H]3NC(=O)[C@@H](F)C34CC4)nccc2cc1C(N)=O [Example 19, 1-(((4S,7S)-7-fluoro-6-oxo-5-azaspiro[2.4]heptan-4-yl)methoxy)-7-isopropoxyisoquinoline-6-carboxamide]
5.2 nM	0.8 nM	COc1cc2c(OC[C@H]3NC(=O)[C@@H](F)C34CC4)nccc2cc1C(N)=O [Example 24, 1-(((4S,7S)-7-fluoro-6-oxo-5-azaspiro[2.4]heptan-4-yl)methoxy)-7-methoxyisoquinoline-6-carboxamide]
2.2 nM	0.5 nM	CC[C@@H]1[C@H](F)C(=O)N[C@@H]1COc1ncc(N)c2cc(C(N)=O)c(OC)cc12 [Example 15, 4-Amino-1-{[(2S,3S,4S)-3-ethyl-4-fluoro-5-oxopyrrolidin-2-yl]methoxy}-7-methoxyisoquinoline-6-carboxamide]
